According to paper PMC6199744, “Development of Chemical Proteomics for the Folateome and Analysis of the Kinetoplastid Folateome” (ACS Infectious Diseases, 2018):
Read-outs that look alike come from different tables or passages of the source.

Key:
Format in all cases: binding
[1] = molecular target: T1, HeLa cell extract proteins (Homo sapiens, UniProt P47712)
T1 construct: endogenous in cells; host or cells: HeLa cell extract
T1 sequence (P47712 1-749): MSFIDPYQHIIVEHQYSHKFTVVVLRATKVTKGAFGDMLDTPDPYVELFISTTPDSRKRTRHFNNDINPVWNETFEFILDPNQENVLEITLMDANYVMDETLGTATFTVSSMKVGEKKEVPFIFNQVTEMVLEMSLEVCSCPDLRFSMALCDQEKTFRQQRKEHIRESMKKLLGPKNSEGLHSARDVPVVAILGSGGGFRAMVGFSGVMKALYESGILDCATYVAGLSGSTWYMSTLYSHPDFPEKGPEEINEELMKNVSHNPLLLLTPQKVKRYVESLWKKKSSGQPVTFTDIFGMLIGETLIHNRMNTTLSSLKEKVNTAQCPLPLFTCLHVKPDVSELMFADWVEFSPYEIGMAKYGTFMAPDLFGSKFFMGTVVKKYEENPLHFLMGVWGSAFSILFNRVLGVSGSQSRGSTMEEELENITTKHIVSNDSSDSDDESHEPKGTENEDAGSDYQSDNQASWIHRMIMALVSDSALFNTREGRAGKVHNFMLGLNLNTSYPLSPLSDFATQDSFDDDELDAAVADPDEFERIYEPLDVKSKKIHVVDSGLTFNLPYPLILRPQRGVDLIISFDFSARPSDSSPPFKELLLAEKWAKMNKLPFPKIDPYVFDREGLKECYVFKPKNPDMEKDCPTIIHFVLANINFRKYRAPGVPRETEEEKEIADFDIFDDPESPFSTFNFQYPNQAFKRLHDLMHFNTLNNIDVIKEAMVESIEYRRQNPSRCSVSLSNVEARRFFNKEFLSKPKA

[2] = molecular target: T2, HeLa cell extract proteins (Homo sapiens, UniProt P25205)
T2 construct: endogenous in cells; host or cells: HeLa cell extract
T2 sequence (P25205 1-808): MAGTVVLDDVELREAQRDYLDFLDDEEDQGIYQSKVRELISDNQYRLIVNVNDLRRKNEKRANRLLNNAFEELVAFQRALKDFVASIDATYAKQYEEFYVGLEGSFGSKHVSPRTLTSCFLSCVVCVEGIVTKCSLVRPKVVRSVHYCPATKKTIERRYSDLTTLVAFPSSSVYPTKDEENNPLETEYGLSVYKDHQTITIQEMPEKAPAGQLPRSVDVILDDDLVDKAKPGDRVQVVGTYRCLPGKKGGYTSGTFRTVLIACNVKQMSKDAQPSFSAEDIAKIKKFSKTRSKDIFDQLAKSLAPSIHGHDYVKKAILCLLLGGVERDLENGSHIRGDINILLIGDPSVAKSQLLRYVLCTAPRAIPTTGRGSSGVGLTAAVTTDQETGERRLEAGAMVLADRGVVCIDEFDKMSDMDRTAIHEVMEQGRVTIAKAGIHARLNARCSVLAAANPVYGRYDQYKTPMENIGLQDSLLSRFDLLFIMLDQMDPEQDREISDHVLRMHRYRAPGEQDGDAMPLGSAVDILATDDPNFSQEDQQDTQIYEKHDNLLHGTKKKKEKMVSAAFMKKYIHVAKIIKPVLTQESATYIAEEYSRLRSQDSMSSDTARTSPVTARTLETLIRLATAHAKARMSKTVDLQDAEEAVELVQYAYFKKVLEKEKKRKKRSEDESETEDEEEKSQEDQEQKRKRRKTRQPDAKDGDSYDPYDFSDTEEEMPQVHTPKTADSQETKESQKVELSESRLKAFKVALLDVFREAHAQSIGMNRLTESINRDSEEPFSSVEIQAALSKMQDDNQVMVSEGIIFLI

[3] = molecular target: T3, HeLa cell extract proteins (Homo sapiens, UniProt O95486)
T3 construct: endogenous in cells; host or cells: HeLa cell extract
T3 sequence (O95486 1-1093): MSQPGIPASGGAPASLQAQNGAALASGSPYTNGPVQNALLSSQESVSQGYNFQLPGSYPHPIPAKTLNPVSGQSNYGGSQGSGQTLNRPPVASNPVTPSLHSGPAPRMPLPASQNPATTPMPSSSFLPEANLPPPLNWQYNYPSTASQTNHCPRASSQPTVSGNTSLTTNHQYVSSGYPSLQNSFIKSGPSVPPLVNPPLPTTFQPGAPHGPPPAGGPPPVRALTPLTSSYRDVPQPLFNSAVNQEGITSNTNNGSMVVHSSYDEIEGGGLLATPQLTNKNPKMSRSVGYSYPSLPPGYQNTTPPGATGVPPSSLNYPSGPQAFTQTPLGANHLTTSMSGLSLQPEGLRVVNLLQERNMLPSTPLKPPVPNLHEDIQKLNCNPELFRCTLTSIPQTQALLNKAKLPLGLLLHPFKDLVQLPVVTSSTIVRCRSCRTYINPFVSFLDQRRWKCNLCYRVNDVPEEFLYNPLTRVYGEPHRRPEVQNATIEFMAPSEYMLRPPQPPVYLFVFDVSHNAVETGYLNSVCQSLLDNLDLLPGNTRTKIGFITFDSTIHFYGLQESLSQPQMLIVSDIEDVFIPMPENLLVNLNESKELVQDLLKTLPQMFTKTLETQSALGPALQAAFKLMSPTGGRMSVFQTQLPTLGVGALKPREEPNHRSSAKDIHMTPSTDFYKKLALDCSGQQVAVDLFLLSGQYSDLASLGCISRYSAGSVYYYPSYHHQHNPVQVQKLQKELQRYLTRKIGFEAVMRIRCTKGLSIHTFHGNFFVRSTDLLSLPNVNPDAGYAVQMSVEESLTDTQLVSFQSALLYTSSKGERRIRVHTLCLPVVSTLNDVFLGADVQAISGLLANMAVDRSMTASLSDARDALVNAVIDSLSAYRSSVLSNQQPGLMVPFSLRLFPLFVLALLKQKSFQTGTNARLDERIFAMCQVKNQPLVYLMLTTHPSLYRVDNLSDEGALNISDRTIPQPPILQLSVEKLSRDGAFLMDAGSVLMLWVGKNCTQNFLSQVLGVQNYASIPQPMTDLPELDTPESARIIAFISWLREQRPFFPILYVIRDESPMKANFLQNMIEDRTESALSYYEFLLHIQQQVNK

[4] = molecular target: T4, HeLa cell extract proteins (Homo sapiens, UniProt Q9BQB6)
T4 construct: endogenous in cells; host or cells: HeLa cell extract

[5] = molecular target: T5, HeLa cell extract proteins (Homo sapiens, UniProt Q14203)
T5 construct: endogenous in cells; host or cells: HeLa cell extract
T5 sequence (Q14203 whole entry): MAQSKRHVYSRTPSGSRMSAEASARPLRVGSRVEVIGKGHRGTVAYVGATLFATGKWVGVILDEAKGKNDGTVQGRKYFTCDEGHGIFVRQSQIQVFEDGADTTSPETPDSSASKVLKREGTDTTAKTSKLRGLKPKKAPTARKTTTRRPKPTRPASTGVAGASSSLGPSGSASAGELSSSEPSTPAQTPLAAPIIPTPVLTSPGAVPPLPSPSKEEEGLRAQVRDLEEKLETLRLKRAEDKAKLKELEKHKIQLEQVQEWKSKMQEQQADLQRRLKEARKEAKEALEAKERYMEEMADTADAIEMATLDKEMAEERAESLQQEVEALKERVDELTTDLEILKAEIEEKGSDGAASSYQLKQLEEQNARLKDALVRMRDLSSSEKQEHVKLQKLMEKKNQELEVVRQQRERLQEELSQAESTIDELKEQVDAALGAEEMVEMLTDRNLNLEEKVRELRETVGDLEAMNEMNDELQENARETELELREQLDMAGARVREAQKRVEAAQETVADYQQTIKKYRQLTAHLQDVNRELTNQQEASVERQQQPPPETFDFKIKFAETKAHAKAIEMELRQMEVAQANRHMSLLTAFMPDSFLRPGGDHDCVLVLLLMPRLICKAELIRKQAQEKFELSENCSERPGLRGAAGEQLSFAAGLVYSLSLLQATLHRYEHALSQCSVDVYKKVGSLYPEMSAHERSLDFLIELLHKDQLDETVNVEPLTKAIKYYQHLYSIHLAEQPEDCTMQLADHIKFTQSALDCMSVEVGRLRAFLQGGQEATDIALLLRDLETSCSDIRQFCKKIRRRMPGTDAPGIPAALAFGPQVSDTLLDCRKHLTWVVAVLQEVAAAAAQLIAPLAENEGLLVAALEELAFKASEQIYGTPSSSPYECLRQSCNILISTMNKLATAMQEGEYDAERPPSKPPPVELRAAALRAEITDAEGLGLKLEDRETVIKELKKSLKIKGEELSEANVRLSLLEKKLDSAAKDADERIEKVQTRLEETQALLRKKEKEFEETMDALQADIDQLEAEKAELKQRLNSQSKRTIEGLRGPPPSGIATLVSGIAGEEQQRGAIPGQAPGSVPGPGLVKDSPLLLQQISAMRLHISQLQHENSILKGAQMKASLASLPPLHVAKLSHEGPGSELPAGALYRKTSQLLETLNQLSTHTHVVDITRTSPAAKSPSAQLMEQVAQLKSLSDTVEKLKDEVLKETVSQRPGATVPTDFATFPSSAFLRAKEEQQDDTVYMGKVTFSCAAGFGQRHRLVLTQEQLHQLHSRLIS

T4 sequence (Q9BQB6 whole entry): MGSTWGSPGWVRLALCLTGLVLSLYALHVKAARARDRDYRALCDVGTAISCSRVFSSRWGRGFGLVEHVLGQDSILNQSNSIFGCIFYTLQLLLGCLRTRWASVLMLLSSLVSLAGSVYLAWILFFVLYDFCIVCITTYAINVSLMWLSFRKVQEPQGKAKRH

Structure (SMILES) | fold changes relative to vehicle control ([1]; protein PLA2G4A, HeLa) | fold changes relative to vehicle control ([2]; protein MCM3, HeLa) | fold changes relative to vehicle control ([3]; protein SEC24A, HeLa) | fold changes relative to vehicle control ([4]; HeLa, protein VKORC1) | fold changes relative to vehicle control ([5]; protein DCTN1, HeLa) | fold changes relative to vehicle control ([1]; HeLa, protein PLA2G4A) | fold changes relative to vehicle control ([2]; HeLa, protein MCM3) | fold changes relative to vehicle control ([3]; HeLa, protein SEC24A) | fold changes relative to vehicle control [1] | fold changes relative to vehicle control [2] | fold changes relative to vehicle control [3] | fold changes relative to vehicle control [4] | fold changes relative to vehicle control [5]
CCCCCCOc1cccc(Cc2cnc(N)nc2N)c1 [compound 2] | 1.72 | 1.38 | 1.44 | 1.05 | 1.27 | – | – | – | – | – | – | – | –
NCCOCCOCC(=O)Nc1nc2ncc(CNc3ccc(C(=O)NC(CCC(=O)O)C(=O)O)cc3)nc2c(=O)[nH]1 (centres unmarked) [compound 6] | – | – | – | 1.04 | 1.32 | 1.18 | 1.01 | 1.03 | – | – | – | – | –
CCCCCCOc1ccc(Cc2cnc(N)nc2N)cc1 [compound 1] | 1 | 0.94 | 1.15 | 0.98 | 1.18 | – | – | – | – | – | – | – | –
Nc1nc2c(c(=O)[nH]1)N(C=O)C(CNc1ccc(C(=O)N[C@@H](CCC(=O)O)C(=O)O)cc1)CN2 (some centres unmarked) [LEU, leucovorin] | – | – | – | 1.02 | 1.14 | 0.94 | 0.91 | 1.02 | – | – | – | – | –
NCCCNc1ccc(C(=O)NC(CCC(=O)O)C(=O)O)cc1 (centres unmarked) [compound 7] | – | – | – | 1.11 | 1.03 | 0.88 | 0.93 | 1.01 | – | – | – | – | –
Nc1nc2[nH]cc(CCc3ccc(C(=O)N[C@@H](CCC(=O)O)C(=O)O)cc3)c2c(=O)[nH]1 [PTX, pemetrexed] | – | – | – | – | – | – | – | – | 1.13 | 1.03 | 1.03 | 1.01 | 1.17
Nc1nc2cccc(-c3ccccc3)c2n1Cc1ccc(Cl)c(Cl)c1 [compound 3] | 0.91 | 1.29 | 1.03 | 1.03 | 1.1 | – | – | – | – | – | – | – | –
